ChEMBL document CHEMBL5046284, “Structure-Based Design of a Chemical Probe Set for the 5-HT5A Serotonin Receptor” (J Med Chem, 2022)
Activity calls are given as the source filed them.

Assays:
Mus musculus [1] = assay: Antiallodynic activity in IT dosed […] mouse model of spared nerve injury-induced neuropathic pain assessed as increase in paw withdrawal mechanical threshold measured after 30 mins by von Frey test; type: functional, organism-based
[2] = molecular target: T1, Alpha-2A adrenergic receptor (Homo sapiens) (UniProt P08913); assay: Agonist activity at ADRA2A (unknown origin) transfected in HTLA cells assessed as beta-arrestin 2 recruitment at 10 uM incubated for 18 to 20 hrs by luciferin based Tango assay; type: functional, cell-based; settings: time 18-20 hrs
T1 sequence (whole entry): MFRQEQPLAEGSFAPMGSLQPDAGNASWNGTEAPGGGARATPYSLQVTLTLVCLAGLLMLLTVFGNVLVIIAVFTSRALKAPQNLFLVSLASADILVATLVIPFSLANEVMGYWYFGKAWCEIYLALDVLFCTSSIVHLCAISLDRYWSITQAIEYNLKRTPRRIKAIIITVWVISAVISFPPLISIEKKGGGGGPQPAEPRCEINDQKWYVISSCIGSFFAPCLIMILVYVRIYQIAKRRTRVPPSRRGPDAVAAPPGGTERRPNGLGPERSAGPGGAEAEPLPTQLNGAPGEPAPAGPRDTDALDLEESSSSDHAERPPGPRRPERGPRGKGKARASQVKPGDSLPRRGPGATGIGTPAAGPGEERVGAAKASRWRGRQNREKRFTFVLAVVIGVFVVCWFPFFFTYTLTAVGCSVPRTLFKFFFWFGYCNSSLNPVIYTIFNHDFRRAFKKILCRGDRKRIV

[3] = molecular target: Melatonin receptor type 1A (Homo sapiens) (UniProt P48039); assay: Agonist activity at MTNR1A (unknown origin) transfected in HTLA cells assessed as beta-arrestin 2 recruitment at 10 uM incubated for 18 to 20 hrs by luciferin based Tango assay; type: functional, cell-based; settings: time 18-20 hrs
[4] = molecular target: T2, 5-hydroxytryptamine receptor 1A (Homo sapiens) (UniProt P08908); assay: (§1) Binding affinity to 5-HT1AR (unknown origin) assessed as inhibition constant
T2 sequence (whole entry): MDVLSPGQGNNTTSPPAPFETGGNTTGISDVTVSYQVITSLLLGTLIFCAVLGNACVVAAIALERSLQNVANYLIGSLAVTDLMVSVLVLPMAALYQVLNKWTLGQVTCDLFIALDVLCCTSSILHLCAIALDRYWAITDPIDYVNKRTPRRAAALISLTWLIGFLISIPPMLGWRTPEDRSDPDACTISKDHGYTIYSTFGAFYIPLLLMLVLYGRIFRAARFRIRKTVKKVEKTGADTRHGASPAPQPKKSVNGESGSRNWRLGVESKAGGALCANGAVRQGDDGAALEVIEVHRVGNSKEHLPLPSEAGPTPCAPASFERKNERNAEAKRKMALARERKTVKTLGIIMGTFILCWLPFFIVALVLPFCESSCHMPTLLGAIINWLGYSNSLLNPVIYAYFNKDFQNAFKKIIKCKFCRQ

[5] = molecular target: 5-hydroxytryptamine receptor 1B (Homo sapiens, UniProt P28222); assay: Binding affinity to 5-HT1BR (unknown origin) assessed as inhibition constant
[6] = molecular target: 5-hydroxytryptamine receptor 1D (Homo sapiens, UniProt P28221); assay: Binding affinity to 5-HT1DR (unknown origin) assessed as inhibition constant
[7] = molecular target: 5-hydroxytryptamine receptor 2A (Homo sapiens, UniProt P28223); assay: Binding affinity to 5-HT2AR (unknown origin) assessed as inhibition constant
[8] = molecular target: 5-hydroxytryptamine receptor 2B (Homo sapiens, UniProt P41595); assay: Binding affinity to 5-HT2BR (unknown origin) assessed as inhibition constant
[9] = molecular target: T3, 5-hydroxytryptamine receptor 2C (Homo sapiens) (UniProt P28335); assay: (§2) Binding affinity to 5-HT2CR (unknown origin) assessed as inhibition constant
T3 sequence (whole entry): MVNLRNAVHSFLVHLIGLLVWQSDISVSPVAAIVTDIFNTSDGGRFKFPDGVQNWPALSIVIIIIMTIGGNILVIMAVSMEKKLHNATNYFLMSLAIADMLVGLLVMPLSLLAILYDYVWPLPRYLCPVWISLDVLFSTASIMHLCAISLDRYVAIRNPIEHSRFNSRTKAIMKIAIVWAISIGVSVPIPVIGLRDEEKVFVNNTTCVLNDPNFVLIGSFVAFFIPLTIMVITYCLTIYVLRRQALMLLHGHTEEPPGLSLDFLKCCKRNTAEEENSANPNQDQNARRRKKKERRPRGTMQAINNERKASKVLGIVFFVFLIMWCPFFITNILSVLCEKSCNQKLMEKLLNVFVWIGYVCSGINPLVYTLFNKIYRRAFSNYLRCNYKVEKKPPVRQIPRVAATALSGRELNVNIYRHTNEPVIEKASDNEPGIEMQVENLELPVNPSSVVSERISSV

[10] = molecular target: T4, 5-hydroxytryptamine receptor 3A (Homo sapiens) (UniProt P46098); assay: (§3) Binding affinity to 5-HT3 (unknown origin) assessed as inhibition constant
T4 sequence (whole entry): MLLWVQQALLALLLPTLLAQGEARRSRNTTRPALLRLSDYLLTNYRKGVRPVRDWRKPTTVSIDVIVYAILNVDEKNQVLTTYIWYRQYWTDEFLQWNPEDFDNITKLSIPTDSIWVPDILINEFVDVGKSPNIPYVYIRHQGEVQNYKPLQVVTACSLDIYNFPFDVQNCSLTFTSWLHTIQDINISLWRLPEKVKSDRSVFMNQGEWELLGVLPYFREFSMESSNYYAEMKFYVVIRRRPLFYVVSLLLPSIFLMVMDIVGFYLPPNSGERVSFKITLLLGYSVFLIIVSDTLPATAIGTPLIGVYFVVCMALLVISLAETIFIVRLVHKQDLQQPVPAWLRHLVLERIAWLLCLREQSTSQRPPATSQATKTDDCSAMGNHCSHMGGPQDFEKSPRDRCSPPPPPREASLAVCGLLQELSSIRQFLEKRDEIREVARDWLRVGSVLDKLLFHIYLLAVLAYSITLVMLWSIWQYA

HEK-293T = assay: Cytotoxicity against HEK293T cells assessed as reduction in cell viability at high concentration incubated for overnight; type: toxicity, cell-based; settings: human
[11] = molecular target: T5, 5-hydroxytryptamine receptor 1A (Homo sapiens, UniProt P08908); assay: as §1
T5 sequence (P08908 whole entry): T2 sequence (whole entry)

[12] = molecular target: T6, 5-hydroxytryptamine receptor 2C (Homo sapiens, UniProt P28335); assay: as §2
T6 sequence (P28335 whole entry): T3 sequence (whole entry)

[13] = molecular target: T7, 5-hydroxytryptamine receptor 3A (Homo sapiens, UniProt P46098); assay: as §3
T7 sequence (P46098 whole entry): T4 sequence (whole entry)

[14] = molecular target: T8, 5-hydroxytryptamine receptor 5A (Homo sapiens, UniProt P47898); assay: Antagonist activity at human 5-HT5AR assessed as inhibition of beta-arrestin 2 recruitment by measuring reduction in RLuc8-based luminescence incubated for 20 to 30 mins in absence of agonist by luminescence based analysis; type: functional; settings: filed as antagonist, time 20-30 min
[15] = molecular target: T8, 5-hydroxytryptamine receptor 5A; assay: Antagonist activity at human 5-HT5AR assessed as […] of [35S]GTPgammaS binding at 100 uM incubated for 3 to 5 hrs; type: functional; settings: filed as antagonist, time 3-5 hrs
[16] = molecular target: T8, 5-hydroxytryptamine receptor 5A; assay: Displacement of [3H]-5-CT from human 5-HT5A receptor at 100 uM incubated for 2 hr by radioligand binding assay
[17] = molecular target: T8, 5-hydroxytryptamine receptor 5A; assay: Displacement of [3H]-5-CT from human 5-HT5A receptor at 1 uM incubated for 2 hr by radioligand binding assay
Mus musculus [18] = assay: Sedative activity in IT dosed […] mouse assessed as effect on locomotor activity measured after 60 mins by rotarod test; type: toxicity, organism-based; settings: in vivo, icv_or_intrathecal, 1 h
Mus musculus [19] = assay: Effect on baseline mechanical thresholds in IT dosed […] mouse measured after 30 mins by von Frey test; type: functional, organism-based
[20] = molecular target: T8, 5-hydroxytryptamine receptor 5A; assay: Agonist activity at human 5-HT5A receptor transfected in HTLA cells assessed as increase in beta-arrestin 2 recruitment at 10 uM incubated for 18 to 20 hrs by bright-Glo reagent based Tango assay; type: functional, cell-based
[21] = molecular target: T8, 5-hydroxytryptamine receptor 5A; assay: Agonist activity at human 5-HT5A receptor transfected in HTLA cells assessed as increase in beta-arrestin 2 recruitment by measuring maximal efficacy at 10 uM incubated for 18 to 20 hrs by bright-Glo reagent based Tango assay relative to control; type: functional, cell-based; settings: time 18-20 hrs
[22] = molecular target: T8, 5-hydroxytryptamine receptor 5A; assay: Displacement of [3H]-5-CT from human 5-HT5A receptor incubated for 2 hr by radioligand binding assay
[23] = molecular target: Atypical chemokine receptor 3 (Homo sapiens) (UniProt P25106); assay: Agonist activity at CXCR7 (unknown origin) transfected in HTLA cells assessed as beta-arrestin 2 recruitment at 10 uM incubated for 18 to 20 hrs by luciferin based Tango assay; type: functional, cell-based; settings: time 18-20 hrs
[24] = molecular target: 5-hydroxytryptamine receptor 7 (Homo sapiens) (UniProt P34969); assay: Binding affinity to 5-HT7AR (unknown origin)
[25] = molecular target: T8, 5-hydroxytryptamine receptor 5A; assay: Displacement of [3H]-5-CT from human 5-HT5A receptor at 32 uM incubated for 2 hr by radioligand binding assay
Homo sapiens = species: Homo sapiens; assay: Binding affinity to human 5-HT5A receptor W117A mutant ssessed as fold reduction in binding by competition binding assay relative to control; settings: filed as agonist
[26] = molecular target: D(2) dopamine receptor (Homo sapiens) (UniProt P14416); assay: Agonist activity at DRD2 (unknown origin) transfected in HTLA cells assessed as beta-arrestin 2 recruitment at 10 uM incubated for 18 to 20 hrs by luciferin based Tango assay; type: functional, cell-based; settings: filed as agonist, time 18-20 hrs
[27] = molecular target: T3, 5-hydroxytryptamine receptor 2C (Homo sapiens); assay: Agonist activity at 5-HT2CR (unknown origin) transfected in HTLA cells assessed as beta-arrestin 2 recruitment at 10 uM incubated for 18 to 20 hrs by luciferin based Tango assay; type: functional, cell-based; settings: filed as agonist, time 18-20 hrs

T8 sequence (P47898 whole entry): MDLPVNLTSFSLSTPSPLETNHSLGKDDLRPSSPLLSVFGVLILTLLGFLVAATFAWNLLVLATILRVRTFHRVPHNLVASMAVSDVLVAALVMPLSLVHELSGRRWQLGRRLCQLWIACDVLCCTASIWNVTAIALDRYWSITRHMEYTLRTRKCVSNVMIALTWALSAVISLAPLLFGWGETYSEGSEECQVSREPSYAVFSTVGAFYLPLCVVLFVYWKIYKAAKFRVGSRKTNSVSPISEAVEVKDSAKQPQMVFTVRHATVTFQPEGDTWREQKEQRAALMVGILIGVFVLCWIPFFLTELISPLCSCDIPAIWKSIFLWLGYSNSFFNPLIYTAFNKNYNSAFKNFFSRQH
5-hydroxytryptamine receptor 2B, sequence (P41595 whole entry): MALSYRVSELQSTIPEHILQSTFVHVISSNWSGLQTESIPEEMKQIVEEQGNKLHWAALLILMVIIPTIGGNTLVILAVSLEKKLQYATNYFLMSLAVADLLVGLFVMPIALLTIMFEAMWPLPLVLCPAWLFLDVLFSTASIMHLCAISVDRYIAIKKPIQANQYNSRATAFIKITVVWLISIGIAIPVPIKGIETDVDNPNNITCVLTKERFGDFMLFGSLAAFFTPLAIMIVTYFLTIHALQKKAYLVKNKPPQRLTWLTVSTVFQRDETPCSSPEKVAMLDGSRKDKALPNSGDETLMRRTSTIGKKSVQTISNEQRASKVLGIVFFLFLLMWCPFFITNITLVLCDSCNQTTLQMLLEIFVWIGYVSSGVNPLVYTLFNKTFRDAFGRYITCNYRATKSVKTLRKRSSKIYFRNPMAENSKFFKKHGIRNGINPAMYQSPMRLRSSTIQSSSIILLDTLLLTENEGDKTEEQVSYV
5-hydroxytryptamine receptor 1B, sequence (P28222 whole entry): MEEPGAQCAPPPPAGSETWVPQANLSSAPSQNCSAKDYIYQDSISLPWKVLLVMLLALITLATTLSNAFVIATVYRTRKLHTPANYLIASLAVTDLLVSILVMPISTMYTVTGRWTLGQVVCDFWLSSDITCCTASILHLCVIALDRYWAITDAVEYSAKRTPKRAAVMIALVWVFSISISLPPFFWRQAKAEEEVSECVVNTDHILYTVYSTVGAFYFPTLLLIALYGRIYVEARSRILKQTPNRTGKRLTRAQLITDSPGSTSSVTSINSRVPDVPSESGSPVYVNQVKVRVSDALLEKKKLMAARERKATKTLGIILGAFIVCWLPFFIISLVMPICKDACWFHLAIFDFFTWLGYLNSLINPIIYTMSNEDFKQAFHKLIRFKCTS
5-hydroxytryptamine receptor 7 (Homo sapiens), sequence (P34969 whole entry): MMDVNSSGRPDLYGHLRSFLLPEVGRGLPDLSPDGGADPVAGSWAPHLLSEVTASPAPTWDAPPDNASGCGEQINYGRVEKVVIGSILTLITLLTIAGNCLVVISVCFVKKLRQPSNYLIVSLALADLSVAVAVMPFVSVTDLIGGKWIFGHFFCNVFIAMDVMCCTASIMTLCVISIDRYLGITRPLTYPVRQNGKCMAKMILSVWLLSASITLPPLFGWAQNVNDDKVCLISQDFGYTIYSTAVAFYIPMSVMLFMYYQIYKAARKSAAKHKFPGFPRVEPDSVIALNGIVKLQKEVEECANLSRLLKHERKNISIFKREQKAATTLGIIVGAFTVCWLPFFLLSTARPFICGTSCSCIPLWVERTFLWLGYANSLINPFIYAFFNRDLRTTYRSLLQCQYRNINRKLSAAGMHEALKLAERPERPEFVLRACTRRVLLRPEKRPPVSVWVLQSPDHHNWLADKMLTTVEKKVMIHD
5-hydroxytryptamine receptor 2A, sequence (P28223 whole entry): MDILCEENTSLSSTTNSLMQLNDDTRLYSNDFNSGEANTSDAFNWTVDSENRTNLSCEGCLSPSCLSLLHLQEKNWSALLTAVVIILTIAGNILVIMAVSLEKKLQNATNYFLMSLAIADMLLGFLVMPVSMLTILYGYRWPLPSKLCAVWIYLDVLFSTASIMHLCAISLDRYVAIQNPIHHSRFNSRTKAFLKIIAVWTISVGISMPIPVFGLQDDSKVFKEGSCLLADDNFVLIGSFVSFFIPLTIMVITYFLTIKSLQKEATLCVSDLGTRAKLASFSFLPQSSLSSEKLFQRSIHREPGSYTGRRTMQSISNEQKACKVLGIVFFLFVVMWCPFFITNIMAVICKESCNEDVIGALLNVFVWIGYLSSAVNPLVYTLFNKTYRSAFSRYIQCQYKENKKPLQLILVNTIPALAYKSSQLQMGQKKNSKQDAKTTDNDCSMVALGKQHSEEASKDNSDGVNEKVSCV
5-hydroxytryptamine receptor 1D, sequence (P28221 whole entry): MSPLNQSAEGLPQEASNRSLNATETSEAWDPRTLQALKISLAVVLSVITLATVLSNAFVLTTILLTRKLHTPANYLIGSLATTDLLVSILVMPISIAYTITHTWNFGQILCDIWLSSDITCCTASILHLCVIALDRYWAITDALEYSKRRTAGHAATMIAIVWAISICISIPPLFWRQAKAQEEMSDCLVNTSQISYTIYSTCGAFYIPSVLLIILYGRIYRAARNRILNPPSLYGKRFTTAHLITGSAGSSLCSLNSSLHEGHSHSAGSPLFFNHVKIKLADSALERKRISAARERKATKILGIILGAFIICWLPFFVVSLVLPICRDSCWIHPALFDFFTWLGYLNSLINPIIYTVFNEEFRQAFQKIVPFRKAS
D(2) dopamine receptor (Homo sapiens), sequence (P14416 whole entry): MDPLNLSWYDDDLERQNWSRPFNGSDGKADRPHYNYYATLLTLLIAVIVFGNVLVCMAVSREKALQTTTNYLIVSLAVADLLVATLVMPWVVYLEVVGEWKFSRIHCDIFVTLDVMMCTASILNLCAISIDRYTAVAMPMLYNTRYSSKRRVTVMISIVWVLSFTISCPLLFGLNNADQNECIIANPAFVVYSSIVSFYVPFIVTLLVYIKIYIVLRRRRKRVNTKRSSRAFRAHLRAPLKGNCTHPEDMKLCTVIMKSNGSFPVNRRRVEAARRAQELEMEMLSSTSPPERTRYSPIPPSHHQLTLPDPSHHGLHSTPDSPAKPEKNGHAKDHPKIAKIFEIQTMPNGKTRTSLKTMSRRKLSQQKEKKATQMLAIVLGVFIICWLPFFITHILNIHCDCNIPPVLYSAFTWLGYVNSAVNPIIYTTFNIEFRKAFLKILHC
Melatonin receptor type 1A (Homo sapiens), sequence (P48039 whole entry): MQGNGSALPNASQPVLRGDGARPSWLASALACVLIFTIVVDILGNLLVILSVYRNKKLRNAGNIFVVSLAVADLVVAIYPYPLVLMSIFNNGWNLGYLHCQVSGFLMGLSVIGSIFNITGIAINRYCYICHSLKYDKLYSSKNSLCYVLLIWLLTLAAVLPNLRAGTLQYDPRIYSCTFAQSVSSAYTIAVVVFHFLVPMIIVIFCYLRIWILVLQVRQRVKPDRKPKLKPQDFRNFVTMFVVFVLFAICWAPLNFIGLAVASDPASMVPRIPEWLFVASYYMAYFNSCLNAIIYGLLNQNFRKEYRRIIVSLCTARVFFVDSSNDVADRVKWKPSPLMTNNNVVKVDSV
Atypical chemokine receptor 3 (Homo sapiens), sequence (P25106 whole entry): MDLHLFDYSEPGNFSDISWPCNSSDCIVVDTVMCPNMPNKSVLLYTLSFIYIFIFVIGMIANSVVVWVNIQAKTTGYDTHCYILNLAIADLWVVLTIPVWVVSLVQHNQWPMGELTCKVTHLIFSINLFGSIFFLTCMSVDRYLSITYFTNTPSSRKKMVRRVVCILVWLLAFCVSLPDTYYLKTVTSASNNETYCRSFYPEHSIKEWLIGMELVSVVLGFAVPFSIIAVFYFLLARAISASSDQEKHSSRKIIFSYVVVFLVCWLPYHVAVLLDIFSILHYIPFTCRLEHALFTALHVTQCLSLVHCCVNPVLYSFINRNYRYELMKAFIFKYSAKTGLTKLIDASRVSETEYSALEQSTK

CN(C)S(=O)(=O)CCNCc1cccc2ncccc12
Activity (Mus musculus [1]): inactive
Activity [2]: inactive
Activity [3]: inactive
Activity [4]: inactive
Activity [5]: inactive
Activity [6]: inactive
Activity [7]: inactive
Activity [8]: inactive
Activity [9]: inactive
Activity [10]: inactive

CN(C)CCN(Cc1ccc(-c2ccc(CNCCc3ccccc3)cc2)cc1)C(=O)CCC1CCCC1
Activity (HEK-293T): Non-Toxic
Ki [11]: < 2000 nM
Ki [5]: < 2000 nM
Ki [6]: < 2000 nM
Ki [7]: < 2000 nM
Ki [8]: < 2000 nM
Ki [12]: < 2000 nM
Ki [13]: < 2000 nM
Activity [14]: Dose-Dependent Effect
Activity [15]: Active

N#CC1(c2ccccc2)CCC(NCCc2nnc3ccccn23)CC1 (stereo not drawn)
Ki [16]: 28800 nM
Activity [15]: Active

O=S1(=O)CC[C@@H](CNCc2cccc3cccnc23)C1
Ki [17]: 570 nM

CS(=O)(=O)CCCNCc1ccc(Cl)c2cccnc12
Activity (Mus musculus [1]): Active
Activity (Mus musculus [18]): Non-Toxic
Activity (Mus musculus [19]): inactive

CS(=O)(=O)C1(CNCc2ccc(Cl)c3cccnc23)CC1
Activity (Mus musculus [1]): inactive
EC50 [20]: 3630 nM
Emax [21]: 10.5%

CN(C)S(=O)(=O)CCNCc1ccc(F)c2cccnc12
Ki [22]: 271 nM

CCS(=O)(=O)CCCNCc1ccc(Cl)c2cccnc12
Activity (Mus musculus [1]): Active
Activity (Mus musculus [18]): Non-Toxic
Activity [23]: inactive
Activity [4]: inactive
Activity [8]: inactive
Activity (Mus musculus [19]): inactive
Activity [24]: inactive
Ki [22]: > 10000 nM

Clc1ccc(CNCCc2cccnc2)c2ncccc12
Ki [17]: 2400 nM

O=S1(=O)CCC[C@@H](CNCc2cccc3cccnc23)C1
Ki [17]: 705 nM

Cc1cnc(NCc2ccccc2-n2ccnc2)nc1N(C)C
Ki [16]: 12900 nM
Activity [15]: Active

CN(C)S(=O)(=O)CCNCc1cccc2cccnc12
Ki [22]: 229 nM

CN1CC[C@H](CNCc2ccc(Cl)c3cccnc23)CC1=O
Ki [25]: 4000 nM

Clc1ccc(CNCC[C@@H]2CCOC2)c2ncccc12
Ki [25]: 6700 nM

O=C1C[C@H](CNCc2ccc(Cl)c3cccnc23)CN1C1CC1
Ki [25]: 6700 nM

O=S1(=O)CCC[C@@H](CNCc2ccc(Cl)c3cccnc23)C1
Ki [25]: 3100 nM

Cc1cnn(C[C@H](C)NCc2cccc(OCc3ccccn3)c2)c1
Ki [16]: 20900 nM
Activity [15]: Active

CN(C)S(=O)(=O)C1(CNCc2ccc(Cl)c3cccnc23)CC1
fold change (FC) (Homo sapiens): 3.9
Ki [22]: 107 nM

CN(C)S(=O)(=O)CCNCc1ccc(Cl)c2cccnc12
Ki [17]: 208 nM

CS(=O)(=O)C1(CNCc2cccc3cccnc23)CC1
Activity (Mus musculus [1]): Active
Activity (Mus musculus [18]): Non-Toxic
EC50 [20]: 355 nM
Emax [21]: 18.3%
Activity [26]: Active
Activity [27]: Active
fold change (FC) (Homo sapiens): 25
Activity [4]: inactive
Activity [8]: inactive
Activity (Mus musculus [19]): inactive
Activity [24]: inactive

CC(C)(C)c1ccc2c(c1)CN(C[C@@H](O)COC1CCOCC1)CC2
Ki [16]: 21400 nM
Activity [15]: Active

Clc1ccc(CNC[C@H]2CCn3ccnc3C2)c2ncccc12
Ki [25]: 1500 nM

O=C(CCCNCc1ccc(Cl)c2cccnc12)NC1CC1
Ki [16]: 11500 nM
Activity [15]: Active
